Patent US7655629B2, “Peptides and their use for the treatment of HIV infections” (priority 2002, dated 2010)
Values joined by “and” are separate entries in the source; they are usually repeats but may differ in a detail not shown here. Identical values can stand only once. “Also recorded” adds a separate entry of the source. Like-named read-outs stand apart in the source and are kept apart here. Positions of bridges follow the written chain, without caps; N, C: chain ends. Non-standard residues stand in square brackets, D forms with d. Residues, ends and D or L forms follow the SMILES beside them. No end group written: not given here. ξ: configuration not given here. Oic(3aξ,7aξ) = O=C(O)[C@@H]1CC2CCCCC2N1; NMeL = CN[C@@H](CC(C)C)C(=O)O

Experiments:
HIV-1 NL4-3 DTV = details: read-out: IC50 DTV, P4-CCR5 cells, peptide 2 h before infection, readout three days after infection
Method in brief: (§1)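 P4-CCR5 cells (CD4, CCR5, CXCR4, HIV-1 promoter-driven β-galactosidase) pretreated 2 h with peptide, then infected with virus containing 1 ng p24 antigen and incubated overnight. Cells washed and cultured without peptide; three days post-infection infectivity read by chemiluminescent β-galactosidase assay, in quintuplicate.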

X4-tropic HIV-1 NL4-3 = details: read-out: IC50 NL4-3; P4-CCR5 cells, HIV-1 NL4-3, peptide 2 h before infection, readout three days after infection
Method in brief: as §1

[1] = Acute toxicity in mice after a single intravenous injection; type: in vivo, SCID-C.B 17-mice; details: 927 mg per kg body weight
Experimental: Acute toxicity was evaluated with VIR-121 (LEAIPMSIPpEVAFNkPFVF) after a single intravenous injection into the tail vein of SCID-C.B 17-mice. A dose of 927 mg VIR-121 (SEQ ID NO. 2) dissolved in 13.6 ml 0.9 volume % sodium chloride solution per kg body weight (equivalent to 20.4 mg or 272 μL per mouse) was applied. Injection speed was dose within 15 seconds. […] As a control, 3 mice were each treated with a corresponding volume of vehicle (0.9 volume % NaCl). After 24 hours, the animals were sacrificed, dissected and inspected macroscopically. […] No findings were obtained from macroscopic necropsy compared to the control group.

[2] = system: human monocytic THP-1 cells; assay: Cytotoxicity on human cells, WST-1 assay; details: 24 hours, 30, 100, 300 and 1000 μg/mL
Experimental: The cytotoxicity of peptides of the invention was tested by evaluating the viability of human monocytic THP-1 cells. Cytotoxic effects of the peptides were tested by their influence on metabolic activity by means of the WST-1 assay (Roche Diagnostics, Germany). THP-1 cells were incubated with test peptides in a 96-well plate (approx. 25,000 cells per well) for 24 hours in RPMI-1640 medium containing 25 mM L-glutamine and 10 volume % fetal calf serum at 37° C. in an atmosphere with 5 volume % CO2. Ten μl of a WST-1 solution was added to each cavity, and incubation of THP-1 cells was allowed for 2 further hours at corresponding conditions. Metabolically active THP-1 cells reduce WST-1, a light red tetrazolium salt, yielding a soluble yellow formazan salt. The amount of reduced WST-1 correlates directly to the number of living cells, and is measured photometrically at a wavelength of λ=450 nm using a microtiter plate reader (reference wavelength is 630 nm). As a positive control, the known cytotoxic substance cycloheximide was used at a concentration of 50 μg/ml; the cytotoxicity of cycloheximide was set to 100%. […] The cytotoxicity of VIRIP peptides was calculated using the formula Viability [%]=[A450 nm (peptide)−A450 nm (cycloheximide)]/[A450 nm (negative control)−A450 nm (cycloheximide)]*100 and was correlated to the averaged viability of untreated THP-1 cells. […]

[3] = molecular target: T1, synthetic fusion peptide of HIV gp41 (Human immunodeficiency virus type 1 group M subtype B, UniProt P04578); assay: Inhibition of fusion peptide-induced hemolysis; type: cell-based; details: peptides at 1000, 100 and 10 μM preincubated with 100 μM fusion peptide, human erythrocytes, hemoglobin release
T1 construct: The fusion peptide is the very amino-terminal part of gp41 consisting of about 30 amino acid residues
Experimental: The synthetic fusion peptide of HIV gp41 causes concentration-dependent hemolysis which can be measured by hemoglobin released by erythrocytes.
Peptides and any other substance binding to the fusion peptide impair its potency to lyse erythrocytes by changing its structural properties. The inhibition of fusion peptide induced hemolysis was tested as follows: Blood from healthy donors was collected in citrate monovettes and the erythrocytes were extracted by a standard centrifugation and washing protocol known to the skilled person. The final erythrocyte-containing pellett was diluted 1:100 with phosphate-saline buffer. To the peptides (10, 100, or 1000 equivalents) 20 μl of a 100 μM fusion peptide solution in 10% DMSO were added and the solution was diluted to 100 μl with phosphate-buffered saline. A 60 min incubation at 37° C. was carried out. After the preincubation the samples were transferred to 96-well plates and 100 μl of the erythrocyte suspension were added and incubated for 60 min at 37° C. […] The 96-well plate is centrifuged 5 min at 2800 rpm and of the supernatant fluid 150 μl were transferred to a flat-bottom microtiter plate, and the absorbance was measured at 450 nm. The percentage hemolysis was calculated by: [(A450 of the peptide treated sample—A450 of buffer treated sample)/(A450 of Tween-20 treated sample—A450 of buffer treated sample)]×100%.

[4] = human, plasma
Experimental: (§2) Plasma was spiked resulting in concentrations of 40 μg/ml and stored at 37° C. At time points 0, 15, 30, 45, 60, 120, 180, 240 and 300 min samples of 20 μl were taken. The plasma was immediately mixed for precipitation with the two-fold volume of acetonitrile containing 0.15% (w/v) n-nonyl-β-D-glucopyranoside. Following centrifugation the supernatants were mixed with the two-fold volume of 0.1% (v/v) trifluroacetic acid. Twenty μl of these solutions were analyzed by LC-MS. Chromatography was performed using a gradient with the following eluents: eluent A: water containing 0.06% trifluroacetic acid (v/v), eluent B: acetonitrile/water 80:20 (v/v; with 0.05% trifluoroacetic acid; v/v). A C18 precolumn was used in combination with a C18 separation column (300 Å, 5 μm, 150×1 mm inner diameter) at a flow rate of 30 μl/min. HPLC eluates were ionized by the electrospray technique of a LCQ classic mass spectrometer. Areas of the detected peaks of the peptides of the present invention were measured and used for quantification by external calibration. The calibration curve was linear over a range from 0.5 μg/ml to 250 μg/ml plasma. Half life—defined as the period for a concentration decrease to 50% of the initial concentration—was calculated from the slope of an extrapolated curve plotting the relative peptide concentration at a given time point (logarithm scale) against the incubation time. These experiments allowed the quantitative analysis of peptide concentration in plasma.

[5] = rat, plasma
Experimental: as §2

[6] = dog, plasma
Experimental: as §2

[7] = cynomolgus monkey, plasma
Experimental: as §2

[8] = molecular target: gp41 of HIV-1 NL4-3 (HIV-1 NL4-3); assay: cell-based or functional assay
[9] = molecular target: gp41 of HIV-1 NL4-3 DTV (HIV-1 NL4-3 DTV); assay: cell-based or functional assay

Molecule: CC[C@H](C)[C@H](NC(=O)[C@H](C)NC(=O)[C@H](CCC(=O)O)NC(=O)[C@@H](N)CC(C)C)C(=O)N1CCC[C@H]1C(=O)N[C@@H](CCSC)C(=O)N[C@@H](CO)C(=O)N[C@H](C(=O)N1CCC[C@H]1C(=O)N1CCC[C@@H]1C(=O)N[C@@H](CCC(=O)O)C(=O)N[C@H](C(=O)N[C@@H](C)C(=O)N[C@@H](Cc1ccccc1)C(=O)N[C@@H](CC(N)=O)C(=O)N[C@@H](CCCCN)C(=O)N1CCC[C@H]1C(=O)N[C@@H](Cc1ccccc1)C(=O)N[C@H](C(=O)N[C@@H](Cc1ccccc1)C(=O)O)C(C)C)C(C)C)[C@@H](C)CC [VIR-121, LEAIPMSIPpEVAFNKPFVF] (H-LEAIPMSIP[dP]EVAFNKPFVF-OH)
- IC50 (HIV-1 NL4-3 DTV): 1790 nM
- IC50 (X4-tropic HIV-1 NL4-3): 370 nM
- changes of behaviour ([1]; 24 hours observation): No changes of behaviour
- macroscopic necropsy / pathological examination ([1]; sacrificed after 24 hours): did not reveal any abnormalities; also recorded: No findings
- clinical signs (motility, dyspnea, ataxia, muscle tone) ([1]; tail vein, 24 hours observation): no signs of reduced or increased motility, dyspnea, ataxia, nor a reduced or increased muscle tone

Molecule: CC[C@H](C)[C@H](NC(=O)[C@H](C)NC(=O)[C@H](CCC(=O)O)NC(=O)[C@@H](N)CC(C)C)C(=O)N1CCC[C@H]1C(=O)N[C@H]1CSSC[C@@H](C(=O)N[C@H](C(=O)N[C@@H](Cc2ccccc2)C(=O)N[C@@H](Cc2ccccc2)C(=O)N[C@@H](CC(N)=O)C(=O)N[C@@H](CCCCN)C(=O)N2CCC[C@H]2C(=O)N[C@@H](Cc2ccccc2)C(=O)N[C@H](C(=O)N[C@@H](Cc2ccccc2)C(=O)O)C(C)C)C(C)C)NC(=O)[C@@H]2CCCN2C(=O)[C@@H]2CCCN2C(=O)[C@H]([C@@H](C)CC)NC(=O)[C@H](CO)NC1=O [VIR-164] (H-LEAIPCSIPPCVFFNKPFVF-OH; disulfide 6-11)
- IC50 (HIV-1 NL4-3 DTV): 370 nM
- IC50 (X4-tropic HIV-1 NL4-3): 340 nM
- cytotoxic effect on THP-1 cells [2]: free of any cytotoxic effect; also recorded: did not exhibit a cytotoxic effect
- inhibition of fusion peptide-induced hemolysis [3]: Dose dependent inhibition

Molecule: CC[C@H](C)[C@H](NC(=O)[C@H](C)NC(=O)[C@H](CCC(=O)O)NC(=O)[C@@H](N)CC(C)C)C(=O)N1CCC[C@H]1C(=O)N[C@H]1CSSC[C@@H](C(=O)N[C@@H](Cc2ccccc2)C(=O)N[C@@H](C)C(=O)N[C@@H](Cc2ccccc2)C(=O)N[C@@H](CC(N)=O)C(=O)N[C@@H](CCCCN)C(=O)N2CCC[C@H]2C(=O)N[C@@H](Cc2ccccc2)C(=O)N[C@H](C(=O)N[C@@H](Cc2ccccc2)C(=O)O)C(C)C)NC(=O)[C@@H]2CCCN2C(=O)[C@@H]2CCCN2C(=O)[C@H]([C@@H](C)CC)NC(=O)[C@H](CO)NC1=O [VIR-165]
- IC50 (HIV-1 NL4-3 DTV): 140 nM
- cytotoxic effect on THP-1 cells [2]: free of any cytotoxic effect; also recorded: did not exhibit a cytotoxic effect
- inhibition of fusion peptide-induced hemolysis [3]: Dose dependent inhibition

Molecule: CC[C@H](C)[C@H](NC(=O)[C@H](C)NC(=O)[C@H](CCC(=O)O)NC(=O)[C@@H](N)CC(C)C)C(=O)N1CCC[C@H]1C(=O)N[C@@H](CCSC)C(=O)N[C@@H](CO)C(=O)N[C@H](C(=O)N1CCC[C@H]1C(=O)N1CCC[C@@H]1C(=O)N[C@@H](CCC(=O)O)C(=O)N[C@H](C(=O)N[C@@H](C)C(=O)N[C@@H](Cc1ccccc1)C(=O)N[C@@H](CC(N)=O)C(=O)N[C@@H](CCCCN)C(=O)N1C2CCCCC2C[C@H]1C(=O)N[C@@H](Cc1ccccc1)C(=O)N[C@H](C(=O)N[C@@H](Cc1ccccc1)C(=O)O)C(C)C)C(C)C)[C@@H](C)CC (some centres unmarked) [VIR-269, LEAIPMSIPpEVAFNK(Oic)FVF] (H-LEAIPMSIP[dP]EVAFNK[Oic(3aξ,7aξ)]FVF-OH)
- IC50 (HIV-1 NL4-3 DTV): 900 nM
- IC50 (X4-tropic HIV-1 NL4-3): 2610 nM
- inhibition of fusion peptide-induced hemolysis [3]: Dose dependent inhibition

Molecule: H-LEAIPMSIPPEFLFGKPFVF-OH [VIR-175]
- IC50 (HIV-1 NL4-3 DTV): 300 nM
- IC50 (X4-tropic HIV-1 NL4-3): 225 nM
- inhibition of fusion peptide-induced hemolysis [3]: Dose dependent inhibition
- half-life [4]: 5.3 h
- half-life [5]: 0.2 h
- half-life [6]: 17.3 h
- half-life [7]: 3 h

Molecule: H-LEAIPMSIPPEVKFNKPFVF-OH [VIRIP, reference compound]
- IC50 (HIV-1 NL4-3 DTV): 22000 nM and 22200 nM
- IC50 (X4-tropic HIV-1 NL4-3): 15000 nM
- inhibition of fusion peptide-induced hemolysis [3]: Dose dependent inhibition
- half-life [4]: 53.7 h
- half-life [5]: 1.7 h
- half-life [6]: 35.9 h
- half-life [7]: 5.1 h

Molecule: VIR-576 (peptide)
- IC50 NL4-3 (HIV-1 infection of P4-CCR5 cells) [8]: 107 nM
- IC50 DTV (HIV-1 infection of P4-CCR5 cells) [9]: 296 nM

Molecule: VIRIP (peptide)
- IC50 NL4-3 (HIV-1 infection of P4-CCR5 cells) [8]: 15000 nM
- IC50 DTV (HIV-1 infection of P4-CCR5 cells) [9]: 22200 nM

Molecule: [NMeL]EAIPMSIPPEFLFGKPFVF [VIR-512]
- IC50 NL4-3 (HIV-1 infection of P4-CCR5 cells) [8]: 138 nM
- IC50 DTV (HIV-1 infection of P4-CCR5 cells) [9]: 615 nM
